Measured values published in the NIST ThermoML archive (doi:10.1016/j.fluid.2017.04.006).
Numbers after ± are expanded uncertainties.

Columns and labels:
[1] = DSC
[2] = Molar enthalpy of transition or fusion; details: DSC
[3] = xn = mol fraction of the nth substance listed; details: 298.15 K, 97.59 kPa, Liquid, Vibrating tube method

Compound: CS(=O)(=O)[O-].[NH4+] [ammonium methanesulfonate]
- Triple point temperature ([1]; Crystal 1): 470.05 ± 1.8 K
- Triple point temperature ([1]; Crystal 2): 463.05 ± 1.2 K
- Molar enthalpy of transition or fusion ([2]; Crystal 1): 2.03 ± 0.12 kcal/mol
- Molar enthalpy of transition or fusion ([2]; Crystal 2): 2.32 ± 0.0717 kcal/mol

Compound: CS(=O)(=O)[O-].[NH4+] [ammonium methanesulfonate] + O
- mass density ([3]; x1 = 0.0085): 1014.9 ± 5.5 kg/m3
- mass density ([3]; x1 = 0.0178): 1033.1 ± 5.6 kg/m3
- mass density ([3]; x1 = 0.0275): 1050.8 ± 5.7 kg/m3
- mass density ([3]; x1 = 0.0381): 1068.7 ± 5.8 kg/m3
- mass density ([3]; x1 = 0.051): 1088.7 ± 5.8 kg/m3
- mass density ([3]; x1 = 0.0648): 1108.4 ± 5.9 kg/m3
- mass density ([3]; x1 = 0.0951): 1146.2 ± 5.9 kg/m3
- mass density ([3]; x1 = 0.1144): 1166.9 ± 5.9 kg/m3
- mass density ([3]; x1 = 0.1387): 1190.3 ± 5.8 kg/m3

Compound: CS(=O)(=O)[O-].[Na+] [sodium methanesulfonate]
- Triple point temperature ([1]; Crystal): 625.95 ± 0.8 K
- Molar enthalpy of transition or fusion ([2]; Crystal): 5.75 ± 0.129 kcal/mol

Compound: CS(=O)(=O)[O-].[Na+] [sodium methanesulfonate] + O
- mass density ([3]; x1 = 0.008): 1025 ± 5.6 kg/m3
- mass density ([3]; x1 = 0.0188): 1059.9 ± 5.9 kg/m3
- mass density ([3]; x1 = 0.0358): 1110.4 ± 6.2 kg/m3
- mass density ([3]; x1 = 0.0438): 1132.7 ± 6.4 kg/m3
- mass density ([3]; x1 = 0.0621): 1179.8 ± 6.6 kg/m3
- mass density ([3]; x1 = 0.0743): 1209.3 ± 6.8 kg/m3
- mass density ([3]; x1 = 0.0952): 1255.7 ± 7 kg/m3
- mass density ([3]; x1 = 0.1087): 1283.5 ± 7.1 kg/m3
- mass density ([3]; x1 = 0.1247): 1313.8 ± 7.2 kg/m3
